Laboratory results from US10251943B2, “PLIF multimeric peptides and uses thereof” (Ramot at Tel-Aviv University Ltd., priority 2012, dated 2019).
“Also recorded” adds a separate entry of the source. Bridges are numbered along the chain shown (N, C = ends). Roman numbers before positions name the chains, in order. Where no end group is shown, it is not given here.

Key:
[1] = system: human T cells (HDMAR); assay: Binding to HDMAR human T cell line (detected by anti-C24D IgG); format: cell-based
[2] = system: human PBMC activated with OKT3 MoAb; assay: Cell stimulation and cytokine production (ELISA of supernatants); format: cell-based; details: for Level of INF-γ: vs control cultures; for Level of IL-10: vs control cells
Procedure: Peripheral blood mononuclear cells (PBMC) at 2×10^6 in 1 ml of 5% human serum/RPMI-1640 were cultured in a 10 ml round-bottom tube, treated with C48 (2 μg/ml), C24D (10 μg/ml), or non-treated. Subsequently, these cultures were stimulated with OKT3 MoAb (100 ng/ml) or non-stimulated. Supernatants were collected at 24, and 72 hours for analysis of IL-10 and other cytokines as indicated in each experiment.
The ELISA kits for the human cytokines TNF-α, IL-10 and IFN-γ were purchased from DPC, and R&D Systems, USA. These kits were used to quantify the indicated cytokines production in the supernatants, according to the manufacturer's instructions.
(§1) Buffy coats from blood bank donors were layered onto Lymphoprep solution (Nycomed, Oslo, Norway) and spun at 2000 rpm for 20 minutes. The interface layer was collected, washed twice, counted, and resuspended in PBS; pH 7.4 to the desired cell concentration.

[3] = system: pregnancy development; details: vaccination of mice prior to mating; cited from earlier work
[4] = system: human macrophages; assay: Binding to the surface of human macrophages (FITC-labelled antibody detection); format: cell-based; details: detected by mouse anti-C24D IgG-FITC and rabbit anti-C48 IgG-FITC
[5] = system: C48 receptor on human T cells; assay: Inhibition of C48 binding to HDMAR human T cells (detected by anti-C48 IgG-FITC); format: cell-based; details: pre-incubation of HDMAR T cells with different concentrations
[6] = system: MCF-7 human breast cancer cells; assay: MCF-7 and PBMC co-culture in vitro; format: cell-based
Procedure: The MCF-7 human breast carcinoma cell line was maintained in monolayer cultures in RPMI-1640 medium supplemented with 10% fetal calf serum. For passages, confluent monolayer cultures were trypsinized with trypsin/EDTA solution (0.25%/0.05%, respectively), washed once, and seeded in culture medium.
as §1
MCF-7 was maintained in RPMI+fetal calf serum (FCS) 10%. 1 day before the experimental start, the medium was replaced with RPMI+human AB serum 10%. PBMC (1×10^6) were added to MCF-7 (0.1×10^6) at a final volume of 1 ml dispensed into 24-well plates. The cells were treated with C24D 30 μg/ml at 0, 24 and 48 hours. The cells without treatment were used as a control. Plates were washed, fixed for 1 hour with 4% formaldehyde solution and stained with Giemsa for microscopic evaluation on experimental days 1, 5, and 8.
PBMC were removed from the following cell cultures: a) non-treated control MCF-7+PBMC, b) control (only PBMC cultured with C24D), and c) C24D-treated MCF-7+PBMC. All were transferred to new untreated MCF-7 cell monolayer cultures.

[7] = system: T47D cells; assay: T47D and PBMC co-culture in vitro; format: cell-based, human
Procedure: Human ductal breast epithelial tumor cell line (T47D) was maintained in RPMI-1640 medium supplemented with 10% fetal calf serum.
as §1
T47D was maintained in RPMI+FCS 10%. 1 day before the start of the experiment, the medium was replaced with RPMI+AB human serum 10%. PBMCs (1×10^6) were added to T47D (0.1×10^6) at a final volume 1 ml into 24-well plates. The cells were treated with C24D (30 μg/ml) at 0, 24 and 48 hours. The cells without treatment were used as a control. Plates were washed, fixed for 1 hour with 4% formaldehyde solution and stained with Giemsa for microscopic evaluation on experimental days 1, 5, and 8.
After five days of primary culture with T47D and C24D, PBMCs (1 million) were added to fresh T47D (0.1 million) at a final volume 1 ml into 24-well plates. The cells were treated with C24D (30 μg/ml) at 0, 24 and 48 hours. After 4 days of culture, the cells were examined. […] The ratio between T47D and PBMCs was 1:10. Two days after incubation the cells were examined as illustrated in FIGS. 20A-B.

[8] = system: MCF-7 human breast cancer cells; assay: MCF-7 tumor development in nude mice transfused with human PBMC; format: in vivo, Athymic BALB/c nude mice
Procedure: Athymic BALB/c nude mice were purchased from Harlan Laboratories Ltd. Mice were inoculated subcutaneously (s.c.) with MCF-7 human breast cancer cells (6×10^6), in the presence of an estrogen source (0.72 mg). The slow-release pellets (60-day release) were implanted s.c. into the cervical scapular space.
as §1, with “PBS (pH 7.4)” for “PBS; pH 7.4”, “concentration. Human PBMC (50×10^6/0.5 ml) were injected intravenously after transplantation of MCF-7 tumor cells as described above.” for “concentration.”
In each experiment, mice were divided into groups of five. C24D dissolved in PBS pH 7.2 was injected i.p. to each mouse daily, at an optimal dose of 60 μg/0.2 ml. Control mice received daily injections of PBS.
Tumors were excised, measured, and fixed in phosphate-buffer formalin (pH 7.0) from which paraffin embedded blocks were prepared.
Four-micron tissue sections were cut from paraffin-embedded blocks and mounted on coated super frost plus slides. They were deparaffinized in xylene, and rehydrated with graded alcohols, rinsed in H2O, and then incubated in 3% H2O2 for 10 minutes and washed in H2O.
For antigen unmasking, the sections were heated in 10 mM of sodium citrate buffer (pH 6.0) for 10 minutes in microwaves or pressure chambers, depending on the manufacturer's instructions, and then cooled at room temperature for 20 minutes. Slides were washed in H2O and in PBS buffer for 5 minutes.
Slides were incubated in normal serum for 10 minutes from a kit (Zymed Laboratories, San Francisco, Calif.). For immunohistochemical staining, performed manually, slides were incubated with primary antibodies at previously determined optimal concentrations, for 60 minutes at room temperature, as summarized in Table 4, herein below.
Slides were washed in H2O and in PBS buffer for 5 minutes and further incubated for 10 minutes with a biothylated second antibody (Zymed Laboratories, San Francisco, Calif.), followed by PBS. […]

Row | Substance | Binding to the surface of human T cells (HDMAR) [1] | Level of INF-γ ([2]; 72 hours) | Level of IL-10 [2] | Pregnancy development [3] | Binding to the surface of human macrophages [4] | Inhibition of the binding of C48 to T cells [5] | Level of INF-γ in the presence of C48 ([2]; 72 hours, together with C48) | Level of IL-10 when added together with C48 ([2]; culture together with C48) | MCF-7 cell monolayer lysis (Giemsa staining) ([6]; MCF7 incubated with PBMC for 5 days) | Lysis of MCF-7 cancer cells ([6]; MCF-7 and PBMC (1:10) cultured 8 days at 37° C., C24D 30 μg/ml) | Cytotoxic effect and growth inhibition of MCF-7 cells ([6]; MCF-7 cultured with human PBMC for 5-8 days) | Cytotoxicity of transferred PBMC on secondary untreated MCF-7 culture ([6]; PBMC removed from C24D-treated MCF-7+PBMC cultures) | T47D tumor cell lysis ([7]; 7 days of incubation with C24D and PBMCs) | Cytotoxicity on secondary T47D culture ([7]; PBMCs from 5-day primary culture added to fresh T47D, C24D 30 μg/ml, 4 days) | Lysis of T47D cancer cells ([7]; T47D and PBMC (1:10) cultured 5 days at 37° C.) | Tumor growth ([8]; Nude mice transfused with human lymphocytes and engrafted with MCF-7, vs PBS) | Mean tumor volume ([8]; after 19 days, daily i.p. 60 μg, nude mice with MCF-7 and human PBMC) [mm^3] | Tumoral necrosis (histochemical analysis) ([8]; tumors removed from treated mice vs control)
1 | C24-48M: monomeric synthetic polypeptide comprising the C48 terminal amino acids (aa) 24-48 (HHLLRPRRRKRPHSIPTPILIFRSP) [reference compound] | does not |  |  |  |  |  |  |  |  |  |  |  |  |  |  |  |  | 
2 | C48: subcloned recombinant C-terminal 48 amino acids of PLIF, its bioactive domain (SEQ ID NO: 100) (FPSPISPSPSCWHHYTTNRPQPQHHLLRPRRRKRPHSIPTPILIFRSP; Placental Immunoregulatory Ferritin (PLIF), C′, derived peptide C48) | bind similarly to the surface of human T cells | did not affect the INF-γ level; also recorded: no INF-γ | high level of IL-10; also recorded: high IL-10 levels | prevented pregnancy development | binds to the surface of human macrophages |  |  |  |  |  |  |  |  |  |  |  |  | 
3 | C24D: covalently linked dimer of identical polypeptide chains, each SEQ ID NO: 1 plus N-terminal Cysteine and Glycine; SEQ ID NO: 102 (chain 1 CGHHLLRPRRRKRPHSIPTPILIFRSP; chain 2 CGHHLLRPRRRKRPHSIPTPILIFRSP; disulfide I:1-II:1) | bind similarly to the surface of human T cells; also recorded: binds to the surface of human T cells | increased significantly; also recorded: high levels of INF-γ | did not increase the level of IL-10 |  |  | inhibits the binding of C48 to T cells | increased significantly | decreased the high level of IL-10 | monolayer lysis | resulted in lysis of the cancer cells | cytotoxic effect and tumor cell growth inhibition | cytotoxic to the tumor cells | An increase in tumor cell lysis | cytotoxic effect | resulted in lysis of the cancer cells | inhibited significantly the tumor growth; also recorded: tumor growth inhibition and cytotoxicity | 42.5±14 | Large areas of tumoral necrosis
